The results in this text go back to ChEMBL document CHEMBL1135049, “Protective effects of polygodial and related compounds on ethanol-induced gastric mucosal lesions in rats: structural requirements and mode of action” (2002).

In assay [1] the test system is Rattus norvegicus. The assay is described as follows: Inhibitory effect of perorally administered compound (0.2 mg/kg) on gastric lesions induced by ethanol in 5 rats with observed lession index (91.3 mm) was determined. The format is functional, Stomach.
Assay [2] deals with Rattus norvegicus. The assay is described as follows: Inhibitory effect of perorally administered compound (1.0 mg/kg) on gastric lesions induced by ethanol in 5 rats with observed lession index (68.7 mm) was determined. The format is functional, Stomach.
Assay [3] deals with Rattus norvegicus. The assay is described as follows: Inhibitory effect of perorally administered compound (0.0125 mg/Kg) on gastric lesions induced by ethanol in 5 rats with observed lession index (129.6 mm) was determined. The format is functional, Stomach.
For assay [4], the system named is Rattus norvegicus. Put plainly: Inhibitory effect of perorally administered compound (0.2 mg/kg) on gastric lesions induced by ethanol in 5 rats with observed lession index (12.6 mm) was determined. In kind it is functional, Stomach.
Assay [5] deals with Rattus norvegicus. Put plainly: Inhibitory effect of perorally administered compound (0.05 mg/kg) on gastric lesions induced by ethanol in 5 rats with observed lession index (48.8 mm) was determined. In kind it is functional, Stomach.
The test system of assay [6] is Rattus norvegicus. Put plainly: Gastroprotective effect of compound was determined in rats at a peroral dose of 0.0125 mg/kg. The format is functional. The conditions noted are these: route oral.
Assay [7] concerns Rattus norvegicus. Put plainly: Inhibitory effect of perorally administered compound (0.025 mg/kg) on gastric lesions induced by ethanol in 5 rats with observed lession index (84.8 mm) was determined. The format is functional, Stomach.
Assay [8] concerns Rattus norvegicus. Put plainly: Inhibitory effect of perorally administered compound (0.1 mg/kg) on gastric lesions induced by ethanol in 5 rats with observed lession index (29.1 mm) was determined. In kind it is functional, Stomach.
For assay [9], the system named is Rattus norvegicus. Put plainly: Inhibitory effect of perorally administered compound (0.5 mg/kg) on gastric lesions induced by ethanol in 7 rats with observed lession index (0.0 mm) was determined. The format is functional, Stomach.
Assay [10] deals with Rattus norvegicus. Put plainly: Inhibitory effect of perorally administered compound (1.0 mg/kg) on gastric lesions induced by ethanol in 6 rats with observed lession index (91 mm) was determined. The format is functional, Stomach.
Assay [11] relates to Rattus norvegicus. Put plainly: Inhibitory effect of perorally administered compound (0.1 mg/kg) on gastric lesions induced by ethanol in 7 rats with observed lession index (95.0 mm) was determined. The format is functional, Stomach.
Assay [12] relates to Rattus norvegicus. The assay is described as follows: Inhibitory effect of perorally administered compound (1.0 mg/kg) on gastric lesions induced by ethanol in 6 rats with observed lession index (0.9 mm) was determined. In kind it is functional, Stomach.
The subject of assay [13] is Rattus norvegicus. Put plainly: Inhibitory effect of perorally administered compound (0.5 mg/kg) on gastric lesions induced by ethanol in 7 rats with observed lession index (4.3 mm) was determined. The format is functional, Stomach.
The subject of assay [14] is Rattus norvegicus. The assay is described as follows: Inhibitory effect of perorally administered compound (0.2 mg/kg) on gastric lesions induced by ethanol in 7 rats with observed lession index (50.0 mm) was determined. In kind it is functional, Stomach.
The test system of assay [15] is Rattus norvegicus. Put plainly: Gastroprotective effect of compound was determined in rats at a concentration of 0.1 mg/kg po. In kind it is functional.
Assay [16] relates to Rattus norvegicus. The assay is described as follows: Inhibitory effect of perorally administered compound (1.0 mg/kg) on gastric lesions induced by ethanol in 6 rats with observed lession index (103.7 mm) was determined. The format is functional, Stomach.
Assay [17] relates to Rattus norvegicus. The assay is described as follows: Inhibitory effect of perorally administered compound (1.0 mg/kg) on gastric lesions induced by ethanol in 9 rats with observed lession index (100.5 mm) was determined. In kind it is functional, Stomach.
Assay [18] relates to Rattus norvegicus. The assay is described as follows: Inhibitory effect of perorally administered compound (0.5 mg/kg) on gastric lesions induced by ethanol in 7 rats with observed lession index (17.1 mm) was determined. The format is functional, Stomach.
Assay [19] concerns Rattus norvegicus. The assay is described as follows: Inhibitory effect of perorally administered compound (0.2 mg/kg) on gastric lesions induced by ethanol in 7 rats with observed lession index (62.7 mm) was determined. The format is functional, Stomach.
Assay [20] relates to Rattus norvegicus. The assay is described as follows: Inhibitory effect of perorally administered compound (0.1 mg/kg) on gastric lesions induced by ethanol in 7 rats with observed lession index (90.3 mm) was determined. In kind it is functional, Stomach.
Assay [21] relates to Rattus norvegicus. Put plainly: Inhibitory effect of perorally administered compound (1.0 mg/kg) on gastric lesions induced by ethanol in 6 rats with observed lession index (8.5 mm) was determined. The format is functional, Stomach.
In assay [22] the test system is Rattus norvegicus. The assay is described as follows: Inhibitory effect of perorally administered compound (0.05 mg/kg) on gastric lesions induced by ethanol in 7 rats with observed lession index (120 mm) was determined. In kind it is functional, Stomach.
Assay [23] deals with Rattus norvegicus. Put plainly: Gastroprotective effect of compound was determined in rats at a concentration of 0.05 mg/kg po. The format is functional.
The subject of assay [24] is Rattus norvegicus. Put plainly: Inhibitory effect of perorally administered compound (1.0 mg/kg) on gastric lesions induced by ethanol in 9 rats with observed lession index (88.1 mm) was determined. The format is functional, Stomach.
Assay [25] deals with Rattus norvegicus. Put plainly: Inhibitory effect of perorally administered compound (0.001 mg/kg) on gastric lesions induced by ethanol in 9 rats with observed lession index (12.1 mm) was determined. The format is functional, Stomach.
Assay [26] relates to Rattus norvegicus. The assay is described as follows: Inhibitory effect of perorally administered compound (0.0005 mg/kg) on gastric lesions induced by ethanol in 10 rats with observed lession index (49.2 mm) was determined. In kind it is functional, Stomach.
For assay [27], the system named is Rattus norvegicus. Put plainly: Inhibitory effect of perorally administered compound (1.0 mg/kg) on gastric lesions induced by ethanol in 6 rats with observed lession index (76.4 mm) was determined. The format is functional, Stomach.

For the compound `CO[C@@H]1OCC2=CCC3C(C)(C)CCC[C@]3(C)[C@H]21` (some centres not stated), the values for the Inhibition in the assay on Rattus norvegicus [1] and in the assay on Rattus norvegicus [2] were 39.6% and 54.6%, respectively.

As for `CC1(C)CCC[C@]2(C)[C@@H](C=O)C(C=O)=CC[C@@H]12` [POLYGODIAL], the Inhibition (in general, the percentage by which the read-out fell short of the control) came out at 23.5% in the assay with Rattus norvegicus [3]; 92.6% in the assay with Rattus norvegicus [4]; 71.2% in the assay on Rattus norvegicus [5]; 50% in the assay on Rattus norvegicus [7]; 82.8% in the assay on Rattus norvegicus [8]; 100% with Rattus norvegicus [9]. Besides, the ED50 – broadly, the midpoint of the dose-response relation – with Rattus norvegicus [6] stood at 0.028 mg/kg.

Consider `COC(=O)C1=CCC2C(C)(C)CCC[C@]2(C)[C@H]1C(=O)OC` (some centres not stated), for which the Inhibition in the assay on Rattus norvegicus [10] is listed as 37.8%.

Consider `CO[C@@H]1O[C@@H](OC)[C@H]2C1=CCC1C(C)(C)CCC[C@@]12C` (some centres not stated), for which the Inhibition in the assay on Rattus norvegicus [11] was found to be 28%; with Rattus norvegicus [12], 99.3%; with Rattus norvegicus [13], 96.7%; with Rattus norvegicus [14], 62.1%. In the assay on Rattus norvegicus [15], this compound had an ED50 of 0.15 mg/kg.

Compound `CC1(C)CCC[C@@]2(C)C1CC=C1COC[C@@H]12` (some centres not stated) gave an Inhibition with Rattus norvegicus [16] of 29.1%.

As to `CC1(C)CCC[C@@]2(C)C1CC=C(CO)[C@@H]2CO` (some centres not stated), in the assay on Rattus norvegicus [17], the Inhibition is on record as 27.6%.

Regarding `CO[C@H]1O[C@@H](OC)[C@H]2C1=CCC1C(C)(C)CCC[C@@]12C` (some centres not stated), the Inhibition with Rattus norvegicus [18] is listed as 87.4%; in the assay on Rattus norvegicus [19] it was 53.8%; in the assay on Rattus norvegicus [20] it was 33.4%; in the assay on Rattus norvegicus [21], 93.7%; in the assay on Rattus norvegicus [22], 11.5%. The compound also showed an ED50 in the assay with Rattus norvegicus [23] of 0.17 mg/kg.

`CC(=O)OCC1=CCC2C(C)(C)CCC[C@]2(C)[C@H]1COC(C)=O` (some centres not stated): the Inhibition in the assay with Rattus norvegicus [24] was 36.5%.

As to `CCCCC(C)(C)[C@H](O)/C=C/C1[C@H](O)CC(=O)[C@@H]1C/C=C\CCCC(=O)O` (some centres not stated), the figures for the Inhibition in the assay with Rattus norvegicus [25] and with Rattus norvegicus [26] were 91.3% and 64.5%, respectively.

In the case of `CC1(C)CCC[C@@]2(C)C1CC=C(C(=O)O)[C@@H]2C(=O)O` (some centres not stated), the Inhibition in the assay on Rattus norvegicus [27] was found to be 47.7%.
